Laboratory results taken from ChEMBL document CHEMBL1139308, “Identification and synthesis of 2,7-diamino-thiazolo[5,4-d]pyrimidine derivatives as TRPV1 antagonists” (Bioorg Med Chem Lett, 2009).

Assays:
[1] = biological target: Transient receptor potential cation channel subfamily V member 1 (Homo sapiens, UniProt Q8NER1); experiment: Antagonist activity at human TRPV1 expressed in HEK293 cells assessed as inhibition of capsaicin-induced calcium flux; assay type: functional, cell-based
[2] = biological target: Transient receptor potential cation channel subfamily V member 1 (Rattus norvegicus, UniProt O35433); experiment: Antagonist activity at rat TRPV1 expressed in HEK293 cells assessed as inhibition of capsaicin-induced calcium flux; assay type: functional, cell-based
Transient receptor potential cation channel subfamily V member 1 (Rattus norvegicus, UniProt O35433), sequence (O35433 whole entry): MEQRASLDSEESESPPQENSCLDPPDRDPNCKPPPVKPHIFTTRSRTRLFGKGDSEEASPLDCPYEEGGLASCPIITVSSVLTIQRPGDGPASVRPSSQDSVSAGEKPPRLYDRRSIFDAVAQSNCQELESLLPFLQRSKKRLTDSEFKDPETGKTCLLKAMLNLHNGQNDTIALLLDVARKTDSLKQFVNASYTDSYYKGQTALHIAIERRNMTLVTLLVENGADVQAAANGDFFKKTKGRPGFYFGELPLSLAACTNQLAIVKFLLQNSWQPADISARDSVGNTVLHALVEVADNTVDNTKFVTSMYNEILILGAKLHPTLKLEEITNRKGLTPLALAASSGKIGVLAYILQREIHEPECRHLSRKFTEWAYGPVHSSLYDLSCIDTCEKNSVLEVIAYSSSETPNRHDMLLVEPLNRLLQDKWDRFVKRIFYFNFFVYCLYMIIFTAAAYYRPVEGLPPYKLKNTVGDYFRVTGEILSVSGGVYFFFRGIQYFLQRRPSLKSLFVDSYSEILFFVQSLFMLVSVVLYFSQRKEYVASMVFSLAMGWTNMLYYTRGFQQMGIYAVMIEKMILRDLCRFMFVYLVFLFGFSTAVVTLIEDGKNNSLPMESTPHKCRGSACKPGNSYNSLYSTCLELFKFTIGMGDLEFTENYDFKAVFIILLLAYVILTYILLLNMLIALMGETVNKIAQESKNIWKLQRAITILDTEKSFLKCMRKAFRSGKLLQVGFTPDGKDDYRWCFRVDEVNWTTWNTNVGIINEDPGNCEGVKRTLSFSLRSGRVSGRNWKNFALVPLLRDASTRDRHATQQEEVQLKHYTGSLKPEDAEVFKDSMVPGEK

Transient receptor potential cation channel subfamily V member 1 (Homo sapiens, UniProt Q8NER1), sequence (Q8NER1 whole entry): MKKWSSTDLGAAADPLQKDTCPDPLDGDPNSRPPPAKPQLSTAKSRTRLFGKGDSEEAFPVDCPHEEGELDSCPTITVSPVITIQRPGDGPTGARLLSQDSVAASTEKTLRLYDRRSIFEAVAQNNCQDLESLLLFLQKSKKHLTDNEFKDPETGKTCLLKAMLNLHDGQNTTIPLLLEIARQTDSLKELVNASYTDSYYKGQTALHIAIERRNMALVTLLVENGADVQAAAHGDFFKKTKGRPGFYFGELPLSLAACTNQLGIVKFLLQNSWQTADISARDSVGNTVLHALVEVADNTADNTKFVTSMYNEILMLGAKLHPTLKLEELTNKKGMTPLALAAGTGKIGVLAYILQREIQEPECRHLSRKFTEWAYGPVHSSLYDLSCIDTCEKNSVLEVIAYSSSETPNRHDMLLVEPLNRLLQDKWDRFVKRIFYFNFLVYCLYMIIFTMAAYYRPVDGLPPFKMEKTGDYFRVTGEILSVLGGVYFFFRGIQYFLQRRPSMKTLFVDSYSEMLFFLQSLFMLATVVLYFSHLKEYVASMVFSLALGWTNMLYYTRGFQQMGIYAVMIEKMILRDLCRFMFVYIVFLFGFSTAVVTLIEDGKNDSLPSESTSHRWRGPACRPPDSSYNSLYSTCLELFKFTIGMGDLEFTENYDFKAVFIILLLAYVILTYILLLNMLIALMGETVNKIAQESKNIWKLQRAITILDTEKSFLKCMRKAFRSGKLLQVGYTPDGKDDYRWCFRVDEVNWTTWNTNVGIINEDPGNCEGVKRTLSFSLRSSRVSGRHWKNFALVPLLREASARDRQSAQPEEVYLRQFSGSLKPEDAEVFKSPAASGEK

| SMILES | IC50 [1] | IC50 [2] |
| --- | --- | --- |
| CC(C)(C)c1ccc(Oc2ncnc3sc(Nc4c(Cl)cccc4Cl)nc23)cc1 | > 5000 nM | > 5000 nM |
| CSc1ccccc1Nc1nc2c(Nc3ccc(C(F)(F)F)cc3)ncnc2s1 | 43 nM | 26 nM |
| FC(F)(F)c1ccc(Nc2nc(N3CCC3)nc3sc(Nc4c(Cl)cccc4Cl)nc23)cc1 | 59 nM | 25 nM |
| CSc1ccc(Nc2ncnc3sc(Nc4c(Cl)cccc4Cl)nc23)cc1 | 96 nM | 12 nM |
| Cc1cccc(C)c1Nc1nc2c(Nc3ccc(C(F)(F)F)cc3)ncnc2s1 | 23 nM | – |
| FC(F)(F)c1ccc(Sc2ncnc3sc(Nc4c(Cl)cccc4Cl)nc23)cc1 | > 5000 nM | > 5000 nM |
| FC(F)(F)c1ccc(Nc2ncnc3sc(Nc4cccc(C(F)(F)F)c4)nc23)cc1 | > 5000 nM | > 5000 nM |
| FC(F)(F)c1ccc(Nc2ncnc3nc(Nc4c(Cl)cccc4Cl)sc23)cc1 | 680 nM | 864 nM |
| O=C(c1ccc(Nc2ncnc3sc(Nc4c(Cl)cccc4Cl)nc23)cc1)N1CCCC1 | > 5000 nM | > 5000 nM |
| FC(F)(F)c1ccc(Nc2ncnc3sc(Nc4ccccc4Cl)nc23)cc1 | 64 nM | 32 nM |
| CC(C)(C(=O)O)c1ccc(Nc2ncnc3sc(Nc4c(Cl)cccc4Cl)nc23)cc1 | 31 nM | – |
| O=C(O)c1ccc(Nc2ncnc3sc(Nc4c(Cl)cccc4Cl)nc23)cc1 | > 5000 nM | > 5000 nM |
| FC(F)(F)c1ccc(Nc2nc(-c3ccccc3)nc3sc(Nc4c(Cl)cccc4Cl)nc23)cc1 | 539 nM | 104 nM |
| FC(F)(F)c1ccc(Nc2ncnc3sc(Nc4c(Cl)cccc4Cl)nc23)cc1Cl | 21 nM | 9 nM |
| FC(F)(F)c1cccc(Nc2ncnc3sc(Nc4c(Cl)cccc4Cl)nc23)c1 | 206 nM | 192 nM |
| FC(F)(F)c1ccc(Nc2ncnc3sc(Nc4ccccc4)nc23)cc1 | > 5000 nM | – |
| FC(F)(F)c1ccc(Nc2nc(N3CCOCC3)nc3sc(Nc4c(Cl)cccc4Cl)nc23)cc1 | 30 nM | 16 nM |
| FC(F)(F)c1ccc(Nc2ncnc3sc(Nc4ccccc4C(F)(F)F)nc23)cc1 | 74 nM | 37 nM |
| FC(F)(F)c1ccc(Nc2cccc3sc(Nc4c(Cl)cccc4Cl)nc23)cc1 | > 5000 nM | > 5000 nM |
| CN(C)c1nc(Nc2ccc(C(F)(F)F)cc2)c2nc(Nc3c(Cl)cccc3Cl)sc2n1 | 59 nM | 43 nM |
| FC(F)(F)c1ccccc1Nc1ncnc2sc(Nc3c(Cl)cccc3Cl)nc12 | > 5000 nM | > 5000 nM |
| FC(F)(F)c1ccc(Nc2ncnc3sc(Nc4ncccc4C(F)(F)F)nc23)cc1 | > 5000 nM | > 5000 nM |
| NC(=O)c1ccc(Nc2ncnc3sc(Nc4c(Cl)cccc4Cl)nc23)cc1 | > 5000 nM | > 5000 nM |
| CS(=O)(=O)c1ccccc1Nc1nc2c(Nc3ccc(C(F)(F)F)cc3)ncnc2s1 | 234 nM | 221 nM |
| Cc1nc(Nc2ccc(C(F)(F)F)cc2)c2nc(Nc3c(Cl)cccc3Cl)sc2n1 | – | 2 nM |
| CN(c1nc2c(Nc3ccc(C(F)(F)F)cc3)ncnc2s1)c1c(Cl)cccc1Cl | 502 nM | 540 nM |
| FC(F)(F)c1ccc(Nc2nc3c(Nc4ccc(C(F)(F)F)cc4)ncnc3s2)cc1 | > 5000 nM | – |
